# Reference: US20230157996A1, “SMALL-MOLECULE INHIBITOR TARGETING EB VIRUS NUCLEAR ANTIGEN PROTEIN, PREPARATION METHOD AND USE THEREOF” (priority 2020, published 2023)
# Tested on: C666-1 cells
# Test: C666-1 cell viability single concentration (50 μM) inhibition rate (Resazurin)
# Type: cell-based
# Details: 50 μM compound, 72 hours, C666-1 cells
# Experimental: In order to assess the effect of the EBNA1 inhibitor at the cellular level, the cell proliferation inhibition rate was tested, and the inhibition rate of inhibitor at a specific concentration on the proliferation of Epstein-Barr virus positive cell line C666-1 was detected.
# In the test, 100 μL C666-1 cells were inoculated in a transparent 96-well plate, and each well contained 5×10^3 cells. After the cells were cultured in an incubator with 5% carbon dioxide at 37° C. for 24 hours, 10 μL compound at a concentration of 500 μmol/L was added into the cells, so that the final concentration of the compound was 50 μmol/L. Two replicate wells were set for each compound, the wells treated with DMSO were set as control wells (Ctrl), and the wells with cell culture medium only were set as blank wells (blank), and they were treated in the incubator with carbon dioxide at 37° C. for 72 hours. The cell viability was assessed using a redox indicator Resazurin. Specifically, 10 μL Resazurin at a concentration of 600 umol/L was added into each well, and incubated at 37° C. for 3 hours, and a Tecan microplate reader was used to detect the fluorescence signal at an excitation wavelength of 560 nm and an emission wavelength of 590 nm. The formula inh %=1−(F−Fblank)/(FCtrl−Fblank)×100% (where, F is the fluorescence intensity of the compound-added wells, FCtrl and Fblank are the readings of the control wells and blank wells, respectively) was used to calculate the inhibition rate of the compound on the proliferation of C666-1 cells, so as to assess the activity of the compound on Epstein-Barr virus positive cells.
row,SMILES,"C666-1 cell viability single concentration (50 μM) inhibition rate, Ratio* (Inh %)"
1,"COC(=O)c1cccc(N2CC(Oc3ccccc3)C2)c1-n1cccc1 [Example 257, Methyl 3-((3-phenoxy)azetidin-1-yl)-2-(1H-pyrrol-1-yl)benzoate]",++ (10%-30% ++)

# Same assay, conditions: Homo sapiens, C6661, 72 h, 50 μM compound, 72 hours, C666-1 cells; read-out: C666-1 cell viability single concentration (50 μM) inhibition rate, Ratio* (Inh %)
row,SMILES,inhibition at 50 µM
1,"COC(=O)c1cccc(N2CC(Oc3ccc(NC(C)=O)cc3)C2)c1-n1cccc1 [Example 120, Methyl 3-(3-(4-acetylaminophenoxy)azetidin-1-yl)-2-(1H-pyrrol-1-yl)benzoate]",10 to 30%
2,"COC(=O)c1cccc(N2CC(Oc3ccc(NC(=O)Nc4cccc(C#N)c4)cc3)C2)c1-n1cccc1 [Example 137, Methyl 3-(3-(4-(3-(3-cyanophenyl)ureido)phenoxy)azetidin-1-yl)-2-(1H-pyrrol-1-yl)benzoate]",> 50%
3,"COC(=O)c1cccc(C#CN(Cc2ccc(CO)cc2)S(=O)(=O)c2ccc(C)cc2)c1-n1cccc1 [Example 332, Methyl 3-(((N-(4-(hydroxymethyl)benzyl)-4-methylphenyl)sulfonamido)ethynyl)-2-(1H-pyrrol-1-yl)benzoate]",> 50%
4,"COC(=O)c1cccc(N2CC(Oc3ccc(COc4ccc(F)cc4)cc3)C2)c1-n1cccc1 [Example 245, Methyl 3-(3-(4-((4-fluorophenoxy)methyl)phenoxy)azetidin-1-yl)-2-(1H-pyrrol-1-yl)benzoate]",< 10%
5,"COC(=O)c1cccc(N2CC3(CN(c4ccccc4N)C3)C2)c1N [Example 275, Methyl 2-amino-3-(6-(2-aminophenyl)-2,6-diazaspiro[3.3]heptan-2-yl)benzoate]",10 to 30%
6,"O=C(O)c1cccc(N2CC(Oc3ccccc3)C2)c1-n1cccc1 [Example 102, 3-(3-phenoxyazetidin-1-yl)-2-(1H-pyrrol-1-yl)benzoic acid]",< 10%
7,"O=C(O)c1cccc(N2CC(NS(=O)(=O)C3CC3)C2)c1-n1cccc1 [Example 183, 3-(3-(cyclopropylsulfonamido)azetidin-1-yl)-2-(1H-pyrrol-1-yl)benzoic acid]",< 10%
8,"CCC(=O)c1ccc(OC2CN(c3cccc(C(=O)OC)c3-n3cccc3)C2)cc1 [Example 214, Methyl 3-(3-(4-propionylphenoxy)azetidin-1-yl)-2-(1H-pyrrol-1-yl)benzoate]",< 10%
9,"COC(=O)c1cccc(C2CC2c2ccccc2)c1N (stereo not drawn) [Example 391, Methyl 2-amino-3-(2-phenylcyclopropyl)benzoate]",< 10%
10,COC(=O)c1cccc(N2CC(OCc3cnccn3)C2)c1-n1cccc1 [Example 142],< 10%
11,"Cc1ccc(S(=O)(=O)n2ccc3cc(OC4CN(c5cccc(C(=O)O)c5-n5cccc5)C4)ccc32)cc1 [Example 305, 3-(3-((1-p-tolylsulfonyl-1H-indol-5-yl)oxy)azetidin-1-yl)-2-(1H-pyrrol-1-yl)benzoic acid]",< 10%
12,"N#Cc1ccc(Oc2ccc(OC3CN(c4cccc(C(=O)O)c4-n4cccc4)C3)cc2)cc1 [Example 211, 3-(3-(4-(4-cyanophenoxy)phenoxy)azetidin-1-yl)-2-(1H-pyrrol-1-yl)benzoic acid]",< 10%
13,"COC(=O)c1cccc(N2CC(Oc3ccc(Oc4ccc(C(C)=O)cc4)cc3)C2)c1-n1cccc1 [Example 206, Methyl 3-(3-(4-(4-acetylphenoxy)phenoxy)azetidin-1-yl)-2-(1H-pyrrol-1-yl)benzoate]",< 10%
14,"COC(=O)c1cccc(N2CC(Oc3ccc(CN4CCOCC4)cc3)C2)c1-n1cccc1 [Example 235, Methyl 3-(3-(4-(morpholinylmethyl)phenoxy)azetidin-1-yl)-2-(1H-pyrrol-1-yl)benzoate]",30 to 50%
15,"O=C(Nc1ccc(OC2CN(c3cccc(C(=O)O)c3-n3cccc3)C2)cc1)Nc1cccc(Cl)c1 [Example 134, 3-(3-(4-(3-(3-chlorophenyl)ureido)phenoxy)azetidin-1-yl)-2-(1H-pyrrol-1-yl)benzoic acid]",10 to 30%
16,"COC(=O)c1cccc(N2CC(Oc3ccc(NS(=O)(=O)C4CC4)cc3)C2)c1-n1cccc1 [Example 126, Methyl 3-(3-(4-(cyclopropylsulfonamido)phenoxy)azetidin-1-yl)-2-(1H-pyrrol-1-yl)benzoate]",> 50%
17,COCCOCc1ccc(OC2CN(c3cccc(C(=O)OC)c3-n3cccc3)C2)cc1 [Example 370],10 to 30%
18,"COC(=O)c1cccc(N2CC3(CN(c4cccc(NS(=O)(=O)C5CC5)c4)C3)C2)c1N [Compound 31, Methyl 2-amino-3-(6-(3-(cyclopropylsulfonamido)phenyl)-2,6-diazaspiro[3.3]heptan-2-yl)benzoate]",10 to 30%
19,"COC(=O)c1cccc(N2CC(Oc3ccc4c(ccn4S(=O)(=O)c4ccc(C)cc4)c3)C2)c1-n1cccc1 [Example 304, Methyl 3-(3-((1-p-tolylsulfonyl-1H-indol-5-yl)oxy)azetidin-1-yl)-2-(1H-pyrrol-1-yl)benzoate]",< 10%
20,CS(=O)(=O)Nc1cccc(-c2c(C(=O)O)cccc2N2CC(Oc3ccc(CO)cc3)C2)c1 [Example 280],< 10%
21,"COC(=O)c1cccc(N2CC(Oc3ccc(CNC(=O)NC4CC4)cc3)C2)c1-n1cccc1 [Example 242, Methyl 3-(3-(4-((3-cyclopropylureido)methyl)phenoxy)azetidin-1-yl)-2-(1H-pyrrol-1-yl)benzoate]",10 to 30%
22,COC(=O)c1cccc(N2CC(Oc3ccc(COC4CCOC4)cc3)C2)c1-n1cccc1 (stereo not drawn) [Example 375],< 10%
23,"Cc1cc(CO)ccc1OC1CN(c2cccc(C(=O)O)c2-n2cccc2)C1 [Example 300, 3-(3-(4-(hydroxymethyl)-2-methylphenoxy)azetidin-1-yl)-2-(1H-pyrrol-1-yl)benzoic acid]",< 10%
24,"O=C(O)c1cccc(N2CC3(CN(c4cccc([N+](=O)[O-])c4)C3)C2)c1[N+](=O)[O-] [Compound 26, 3-(6-(3-nitrophenyl)-2,6-diazaspiro[3.3]heptan-2-yl)-2-nitrobenzoic acid]",< 10%
25,"COC(=O)c1cccc(N2CC(Oc3ccc(CO)c(C)c3)C2)c1-n1cccc1 [Example 251, Methyl 3-(3-(4-(hydroxymethyl)-3-methylphenoxy)azetidin-1-yl)-2-(1H-pyrrol-1-yl)benzoate]",> 50%
26,"COC(=O)c1cccc(N2CC(OC(=S)Nc3ccc(OC)cc3)C2)c1-n1cccc1 [Example 158, Methyl 3-(3-(((4-methoxyphenyl)thiocarbamoyl)oxy)azetidin-1-yl)-2-(1H-pyrrol-1-yl)benzoate]",> 50%
27,"O=C(Nc1ccc(OC(F)(F)F)cc1)NC1CN(c2cccc(C(=O)O)c2-n2cccc2)C1 [Example 168, 2-(1H-pyrrol-1-yl)-3-(3-(3-(4-(trifluoromethoxy)phenyl)ureido)azetidin-1-yl)benzoic acid]",< 10%
28,"O=C(O)c1cccc(N2CC(Oc3ccc(Oc4ccccc4)c(Cl)c3)C2)c1-n1cccc1 [Example 199, 3-(3-(3-chloro-4-phenoxyphenoxy)azetidin-1-yl)-2-(1H-pyrrol-1-yl)benzoic acid]",30 to 50%
29,"CCCCOc1ccc(OC2CN(c3cccc(C(=O)O)c3-n3cccc3)C2)cc1 [Example 108, 3-(3-(4-butoxyphenoxy)azetidin-1-yl)-2-(1H-pyrrol-1-yl)benzoic acid]",< 10%
